Experimental data taken from patent US3951955A, “Penicillins substituted with heterocyclic groups” (Sumitomo Chemical Company, Limited, priority 1970, dated 1976).
Values after ≈ are worked out from the molar mass of the structure shown. Structures can show the parent of a compound that is named as a salt.

Assays:
Experiment in all cases: minimal inhibitory concentration, agar dilution method (in vitro)
Type in all cases: cell-based
[1] = test system: Pseudomonas aeruginosa 104
Text: (§1) When determined according to the agar dilution method, the penicillins [I] afford the minimal inhibitory concentrations as shown in the following Table 1: […]

[2] = test system: Proteus miravilis 2425
Text: as §1

[3] = test system: Escherichia coli NIHJ
Text: as §1

[4] = test system: Klebsiella pneumoniae 602
Text: as §1

[5] = test system: Staphylococcus aureus 209P
Text: as §1

Row | SMILES | MIC [1] [µg/mL] | MIC [2] [µg/mL] | MIC [3] [µg/mL] | MIC [4] [µg/mL] | MIC [5] [µg/mL]
1 | CN(C)c1ncc2ncc(C(=O)NC(C(=O)NC3C(=O)N4C3SC(C)(C)C4C(=O)O)c3ccccc3)c(O)c2n1 (stereo not drawn) [Example 51] | 3.13 (≈ 5.53 µM) | 1.56 (≈ 2.76 µM) | 0.78 (≈ 1.38 µM) | 0.78 (≈ 1.38 µM) | 0.78 (≈ 1.38 µM)
2 | CC1(C)SC2C(NC(=O)C(NC(=O)c3cnc4cncnc4c3O)c3cccs3)C(=O)N2C1C(=O)O (stereo not drawn) [Example 58] | 3.13 (≈ 5.92 µM) | 3.13 (≈ 5.92 µM) | 1.56 (≈ 2.95 µM) | 1.56 (≈ 2.95 µM) | 0.78 (≈ 1.48 µM)
3 | CC1(C)SC2C(NC(=O)C(NC(=O)c3cnc4cnc(N)nc4c3O)c3ccccc3)C(=O)N2C1C(=O)O (stereo not drawn) [Example 59] | 3.13 (≈ 5.82 µM) | 3.13 (≈ 5.82 µM) | 3.13 (≈ 5.82 µM) | 1.56 (≈ 2.9 µM) | 0.78 (≈ 1.45 µM)
4 | CC1(C)SC2C(NC(=O)C(NC(=O)c3cnc4cccnc4c3O)c3cccs3)C(=O)N2C1C(=O)O (stereo not drawn) [Example 39] | 6.25 (≈ 11.8 µM) | 3.13 (≈ 5.93 µM) | 1.56 (≈ 2.96 µM) | 3.13 (≈ 5.93 µM) | 0.78 (≈ 1.48 µM)
5 | CN(C)c1nccc2ncc(C(=O)NC(C(=O)NC3C(=O)N4C3SC(C)(C)C4C(=O)O)c3ccccc3)c(O)c12 (stereo not drawn) [Example 45] | 12.5 (≈ 22.1 µM) | 6.25 (≈ 11.1 µM) | 6.25 (≈ 11.1 µM) | 3.13 (≈ 5.54 µM) | 0.78 (≈ 1.38 µM)
6 | CC1(C)S[C@@H]2[C@H](NC(=O)C(NC(=O)c3cnc4cc(C(F)(F)F)ccc4c3O)c3ccccc3)C(=O)N2[C@H]1C(=O)O (stereo partly drawn) [Example 20] | 6.25 (≈ 10.6 µM) | 3.13 (≈ 5.32 µM) | 12.5 (≈ 21.2 µM) | 0.39 (≈ 0.663 µM) | 0.39 (≈ 0.663 µM)
7 | CCCCN(CCCC)c1ccc2ncc(C(=O)NC(C(=O)NC3C(=O)N4C3SC(C)(C)C4C(=O)O)c3ccccc3)c(O)c2n1 (stereo not drawn) [Example 42] | 3.13 (≈ 4.82 µM) | 3.13 (≈ 4.82 µM) | 3.13 (≈ 4.82 µM) | 3.13 (≈ 4.82 µM) | 1.56 (≈ 2.4 µM)
8 | CC1(C)SC2C(NC(=O)C(NC(=O)c3cnc4ccncc4c3O)c3ccccc3)C(=O)N2C1C(=O)O (stereo not drawn) [Example 43] | 6.25 (≈ 12 µM) | 12.5 (≈ 24 µM) | 12.5 (≈ 24 µM) | 6.25 (≈ 12 µM) | 0.78 (≈ 1.5 µM)
9 | CC1(C)S[C@@H]2[C@H](NC(=O)C(NC(=O)c3cnc4cc(C(F)(F)F)ccc4c3O)c3cccs3)C(=O)N2[C@H]1C(=O)O (stereo partly drawn) [Example 25] | 6.25 (≈ 10.5 µM) | 3.16 (≈ 5.31 µM) | 12.5 (≈ 21 µM) | – | 0.39 (≈ 0.656 µM)
10 | CC1(C)SC2C(NC(=O)C(NC(=O)c3cnc4cnc(NC(=O)OCc5ccccc5)nc4c3O)c3ccccc3)C(=O)N2C1C(=O)O (stereo not drawn) [Example 57] | 6.25 (≈ 9.3 µM) | 3.13 (≈ 4.66 µM) | 6.25 (≈ 9.3 µM) | 3.13 (≈ 4.66 µM) | 1.56 (≈ 2.32 µM)
11 | CCSc1c(C(=O)NC(C(=O)N[C@@H]2C(=O)N3[C@@H]2SC(C)(C)[C@@H]3C(=O)O)c2ccccc2)cnc2cc3c(cc12)OCO3 (stereo partly drawn) [Example 8] | 25 (≈ 41.1 µM) | 12.5 (≈ 20.5 µM) | 12.5 (≈ 20.5 µM) | – | 0.2 (≈ 0.329 µM)
12 | CN(C)c1ccc2ncc(C(=O)NC(C(=O)NC3C(=O)N4C3SC(C)(C)C4C(=O)O)c3cccs3)c(O)c2n1 (stereo not drawn) [Example 38] | 6.25 (≈ 11 µM) | 1.56 (≈ 2.73 µM) | 1.56 (≈ 2.73 µM) | 1.56 (≈ 2.73 µM) | 0.78 (≈ 1.37 µM)
13 | CC1(C)S[C@@H]2[C@H](NC(=O)C(NC(=O)c3cnc4cc5c(cc4c3S)OCO5)c3ccccc3)C(=O)N2[C@H]1C(=O)O (stereo partly drawn) [Example 9] | 3.13 (≈ 5.39 µM) | 3.13 (≈ 5.39 µM) | 6.25 (≈ 10.8 µM) | – | 0.2 (≈ 0.344 µM)
14 | CC1(C)S[C@@H]2[C@H](NC(=O)[C@H](NC(=O)c3cnc4ccccc4c3O)c3ccccc3)C(=O)N2[C@H]1C(=O)O [Example 3, D-(-)-α-(4-hydroxyquinoline-3-carbonamido)-benzylpenicillin] | 6.25 (≈ 12 µM) | 3.13 (≈ 6.01 µM) | 6.25 (≈ 12 µM) | 1.56 (≈ 3 µM) | 0.2 (≈ 0.384 µM)
15 | Cc1nc2cc3c(cc2c(O)c1C(=O)N[C@@H](C(=O)N[C@@H]1C(=O)N2[C@@H]1SC(C)(C)[C@@H]2C(=O)O)c1ccccc1)OCO3 [Example 7, D-(-)-α-(2-methyl-6,7-methylenedioxy-4-hydroxyquinoline-3-carbonamido)-benzylpenicillin potassium salt] | 12.5 | 6.25 | 12.5 | – | 0.2
16 | COc1c(C(=O)NC(C(=O)N[C@@H]2C(=O)N3[C@@H]2SC(C)(C)[C@@H]3C(=O)O)c2ccccc2)cnc2cc3c(cc12)OCO3 (stereo partly drawn) [Example 10] | 25 (≈ 43.2 µM) | 25 (≈ 43.2 µM) | 12.5 (≈ 21.6 µM) | – | 0.2 (≈ 0.346 µM)

Second part, the compound after the results:

Row | MIC [1] [µg/mL] | MIC [2] [µg/mL] | MIC [3] [µg/mL] | MIC [4] [µg/mL] | MIC [5] [µg/mL] | SMILES
17 | 6.25 (≈ 10.8 µM) | 6.25 (≈ 10.8 µM) | 3.13 (≈ 5.41 µM) | 3.13 (≈ 5.41 µM) | 0.78 (≈ 1.35 µM) | CC(=O)Nc1ccc2ncc(C(=O)NC(C(=O)N[C@@H]3C(=O)N4[C@@H]3SC(C)(C)[C@@H]4C(=O)O)c3ccccc3)c(O)c2n1 (stereo partly drawn) [Example 30]
18 | 12.5 (≈ 20.6 µM) | 6.25 (≈ 10.3 µM) | 12.5 (≈ 20.6 µM) | – | 0.78 (≈ 1.28 µM) | CCOC(=O)Oc1c(C(=O)N[C@@H](C(=O)N[C@@H]2C(=O)N3[C@@H]2SC(C)(C)[C@@H]3C(=O)O)c2ccccc2)cnc2nc(C)ccc12 [Example 5, D-(-)-α-(7-methyl-4-ethoxycarbonyloxy-1,8-naphthyridine-3-carbonamido)-benzylpenicillin]
19 | 3.13 (≈ 5.83 µM) | 1.56 (≈ 2.91 µM) | 1.56 (≈ 2.91 µM) | 1.56 (≈ 2.91 µM) | 0.78 (≈ 1.45 µM) | CC1(C)SC2C(NC(=O)C(NC(=O)c3cnc4ccc(N)nc4c3O)c3ccccc3)C(=O)N2C1C(=O)O (stereo not drawn) [Example 40]
20 | 12.5 (≈ 22.7 µM) | 3.13 (≈ 5.67 µM) | 6.25 (≈ 11.3 µM) | 3.13 (≈ 5.67 µM) | 1.56 (≈ 2.83 µM) | COc1cc2ncc(C(=O)NC(C(=O)NC3C(=O)N4C3SC(C)(C)C4C(=O)O)c3ccccc3)c(O)c2cn1 (stereo not drawn) [Example 60]
21 | 3.13 (≈ 5.84 µM) | 1.56 (≈ 2.91 µM) | 1.56 (≈ 2.91 µM) | 3.13 (≈ 5.84 µM) | 0.78 (≈ 1.46 µM) | Cc1ccc2ncc(C(=O)NC(C(=O)NC3C(=O)N4C3SC(C)(C)C4C(=O)O)c3ccccc3)c(O)c2n1 (stereo not drawn) [Example 32]
22 | 12.5 (≈ 16.9 µM) | 12.5 (≈ 16.9 µM) | 12.5 (≈ 16.9 µM) | 1.56 (≈ 2.1 µM) | 0.39 (≈ 0.526 µM) | CCOC(=O)Oc1c(C(=O)NC(C(=O)N[C@@H]2C(=O)N3[C@@H]2SC(C)(C)[C@@H]3C(=O)O)c2ccccc2)cnc2ccc(NC(=O)OCc3ccccc3)cc12 (stereo partly drawn) [Example 24]
23 | 6.25 (≈ 10.4 µM) | 3.13 (≈ 5.23 µM) | 12.5 (≈ 20.9 µM) | 0.39 (≈ 0.651 µM) | 0.39 (≈ 0.651 µM) | CC1(C)S[C@@H]2[C@H](NC(=O)C(NC(=O)c3cnc4cc(S(C)(=O)=O)ccc4c3O)c3ccccc3)C(=O)N2[C@H]1C(=O)O (stereo partly drawn) [Example 22]
24 | 3.13 (≈ 5.68 µM) | 6.25 (≈ 11.4 µM) | 1.56 (≈ 2.83 µM) | 3.13 (≈ 5.68 µM) | 0.78 (≈ 1.42 µM) | CNc1ccc2ncc(C(=O)NC(C(=O)NC3C(=O)N4C3SC(C)(C)C4C(=O)O)c3ccccc3)c(O)c2n1 (stereo not drawn) [Example 35]
25 | 3.13 (≈ 4.99 µM) | 3.13 (≈ 4.99 µM) | 6.25 (≈ 9.97 µM) | 0.39 (≈ 0.622 µM) | 0.2 (≈ 0.319 µM) | CCOC(=O)Oc1c(C(=O)NC(C(=O)N[C@@H]2C(=O)N3[C@@H]2SC(C)(C)[C@@H]3C(=O)O)c2ccccc2)cnc2cc(Cl)ccc12 (stereo partly drawn) [Example 16]
26 | 3.13 (≈ 5.28 µM) | 1.56 (≈ 2.63 µM) | 6.25 (≈ 10.5 µM) | – | 0.2 (≈ 0.337 µM) | CCOC(=O)Oc1c(C(=O)N[C@@H](C(=O)N[C@@H]2C(=O)N3[C@@H]2SC(C)(C)[C@@H]3C(=O)O)c2ccccc2)cnc2ccccc12 [Example 1, D-(-)-α-(4-ethoxycarbonyloxyquinoline-3-carbonamido)-benzylpenicillin]
27 | 50 (≈ 91.1 µM) | 25 (≈ 45.6 µM) | 12.5 (≈ 22.8 µM) | – | 0.2 (≈ 0.365 µM) | CCOc1c(C(=O)NC(C(=O)N[C@@H]2C(=O)N3[C@@H]2SC(C)(C)[C@@H]3C(=O)O)c2ccccc2)cnc2ccccc12 (stereo partly drawn) [Example 13]
28 | 3.13 (≈ 5.82 µM) | 3.13 (≈ 5.82 µM) | 1.56 (≈ 2.9 µM) | 3.13 (≈ 5.82 µM) | 1.56 (≈ 2.9 µM) | CC1(C)S[C@@H]2[C@H](NC(=O)C(NC(=O)c3cnc4ccc(O)nc4c3O)c3ccccc3)C(=O)N2[C@H]1C(=O)O (stereo partly drawn) [Example 29]
29 | 12.5 (≈ 21.6 µM) | 3.13 (≈ 5.42 µM) | 12.5 (≈ 21.6 µM) | 3.13 (≈ 5.42 µM) | 0.78 (≈ 1.35 µM) | CC(=O)Nc1ccc2ncc(C(=O)NC(C(=O)N[C@@H]3C(=O)N4[C@@H]3SC(C)(C)[C@@H]4C(=O)O)c3ccccc3)c(O)c2c1 (stereo partly drawn) [Example 23]
30 | 3.13 (≈ 5.99 µM) | 6.25 (≈ 12 µM) | 3.13 (≈ 5.99 µM) | 3.13 (≈ 5.99 µM) | 0.78 (≈ 1.49 µM) | CC1(C)SC2C(NC(=O)C(NC(=O)c3cnc4ncncc4c3O)c3ccccc3)C(=O)N2C1C(=O)O (stereo not drawn) [Example 47]
31 | 6.25 (≈ 11.4 µM) | 1.56 (≈ 2.83 µM) | 6.25 (≈ 11.4 µM) | 0.78 (≈ 1.42 µM) | 0.39 (≈ 0.708 µM) | COc1ccc2c(O)c(C(=O)NC(C(=O)N[C@@H]3C(=O)N4[C@@H]3SC(C)(C)[C@@H]4C(=O)O)c3ccccc3)cnc2c1 (stereo partly drawn) [Example 18]
32 | 12.5 (≈ 22.1 µM) | 6.25 (≈ 11.1 µM) | 12.5 (≈ 22.1 µM) | 0.78 (≈ 1.38 µM) | 0.39 (≈ 0.69 µM) | CC1(C)S[C@@H]2[C@H](NC(=O)C(NC(=O)c3cnc4cc([N+](=O)[O-])ccc4c3O)c3ccccc3)C(=O)N2[C@H]1C(=O)O (stereo partly drawn) [Example 21]
33 | 3.13 (≈ 5.18 µM) | 1.56 (≈ 2.58 µM) | 6.25 (≈ 10.3 µM) | – | 0.1 (≈ 0.165 µM) | CC(C)(C)C(=O)Oc1c(C(=O)N[C@@H](C(=O)N[C@@H]2C(=O)N3[C@@H]2SC(C)(C)[C@@H]3C(=O)O)c2ccccc2)cnc2ccccc12 [Example 6, D-(-)-α-(4-pivaloyloxyquinoline-3-carbonamido)-benzylpenicillin]
34 | 6.25 | 6.25 | 12.5 | – | 0.78 | Cc1ccc2c(O)c(C(=O)N[C@@H](C(=O)N[C@@H]3C(=O)N4[C@@H]3SC(C)(C)[C@@H]4C(=O)O)c3ccccc3)cnc2n1 [Example 4, D-(-)-α-(7-methyl-4-hydroxy-1,8-naphthyridine-3-carbonamido)-benzylpenicillin potassium salt]
35 | 3.13 (≈ 5.54 µM) | 3.13 (≈ 5.54 µM) | 6.25 (≈ 11.1 µM) | – | 0.1 (≈ 0.177 µM) | CN(C)c1ccc2ncc(C(=O)NC(C(=O)N[C@@H]3C(=O)N4[C@@H]3SC(C)(C)[C@@H]4C(=O)O)c3ccccc3)c(O)c2n1 (stereo partly drawn) [Example 12]
36 | 3.13 (≈ 5.51 µM) | 3.13 (≈ 5.51 µM) | 6.25 (≈ 11 µM) | – | 0.1 (≈ 0.176 µM) | CSc1ccc2ncc(C(=O)NC(C(=O)N[C@@H]3C(=O)N4[C@@H]3SC(C)(C)[C@@H]4C(=O)O)c3ccccc3)c(O)c2n1 (stereo partly drawn) [Example 11]
